Data set [1] in a line: Arterial blood sampling with octanol separation of freely available and bound fractions. The class given is in vivo, dogs. The following applies: 10 min. after injection; remaining activity albumin bound. As to the method: Arterial blood sampling. Blood samples (approximately 0.4-0.5 ml) were drawn from an AV shunt on a schedule similar to the scanning schedule for determination of the arterial input functions. […] Each sample was weighed and counted in a well counter soon after withdrawal, and corrections for radioactive decay were applied to recover time-activity curves for the whole-blood and freely-available arterial input functions for use with compartment modeling. […] While this could potentially complicate measurement of the input function for each tracer; however, at 10 min. after injection the octanol-extractable fraction of PTSM in the blood was only ˜1%, with the remaining activity albumin bound.

The conditions of data set [2]: for k1^Stress / k2^Stress / k3^Stress: adenosine stress; for k1^Rest: ± SD from fit covariance.
Procedure: Data acquisition. PET scans can be performed using, for example, an Advance™ PET scanner (GE Medical Systems, Waukesha, Wis.) operated in 2D mode, though other PET scanners are contemplated within the scope of this invention. Human subjects, when used, were positioned with arms down and a strap was placed across the chest to immobilize the subject and minimize movement artifacts. Transmission scans (^68Ge rod source) were acquired to position the heart in the field of view (2 min) and for attenuation correction (10 min). […] Scans performed during stress were started at the midpoint of a 6 minute adenosine infusion (0.14 mg kg^−1 min^−1) while vital signs including pulse rate, blood pressure and oxygen saturation were assessed by a physician using standard monitoring equipment.
Dynamic PET data were acquired with a waiting period of about 50-71 min between rest and stress emission scans. Imaging protocols were designed to allow rest and stress components to be added to emulate rapid dual-injection data as further described herein. Rest and stress emission scan data were acquired separately using the following temporal sampling schedule for the first 10 minutes: (12×5 s, 6×10 s, 6×30 s and 5×1 min). For rest scans, this schedule was repeated for another 10 minutes for a total emission scan duration of about 20 minutes. This provided equal duration stress timeframes that could be shifted in time and added to the rest timeframes in order to mimic a rapid dual-injection acquisition while retaining standard single-injection emission scan sequences.
Data processing. According to one embodiment, images were reconstructed using filtered back-projection with a Hanning window cutoff at 1.56 cycles cm^−1. The 128×128 image matrices had 4.3 mm voxels and a slice thickness of 4.25 mm. Data were pre-corrected for attenuation, scatter and randoms prior to reconstruction, but not for radioactive decay because it was included in the kinetic modeling equations. A reference image for each scan was created by summing up timeframes with steady uptake of tracer in the myocardium and used as a guide for reorienting to cardiac short-axis (SA) images. The SA images for all rest and stress timeframes in each subject were co-registered using a template showing the endocardial and epicardial boundaries. Based on visual comparison of an average mid-ventricular slice from each timeframe, the entire SA image volume was shifted manually to align with the template in the plane perpendicular to the SA of the heart. Co-registration was not performed in timeframes where myocardium and blood pool were indistinguishable.
Myocardial regions were selected based on a 17-segment model of the American Society of Nuclear Cardiology (Schelbert et al. 2003), known to those of ordinary skill in the art. On each slice of a reference image, endocardial and epicardial boundaries were drawn and the angle of insertion of the right ventricle into the septum was selected as a landmark for division into sectors. The myocardium was divided into one apical region, four sectors in the apical mid-ventricle, six sectors in the basal mid-ventricle and six sectors in the base of the heart. Blood pool regions were drawn manually in each subject with size restricted to limit partial volume effect and spillover of activity from the myocardium. In each subject, the same regions were applied to all co-registered rest and stress timeframes.
Setting [3] is: emulated dual-injection, background subtraction, one typical myocardial region.
Where [4] appears, read: emulated dual-injection, combined modeling, one typical myocardial region.
[5] abbreviates: separate single-injection, one typical myocardial region.

Read-outs that look alike come from different tables or passages of the source.

With `CNC(=S)NN=CC(C)=NNC(=S)NC.[Cu]` [PTSM, copper-pyruvaldehyde-bis[N4-methylthiosemicarbazone]], the “octanol-extractable fraction in the blood” value in data set [1] is “roughly 1%”.
Turning to `[13NH3]` [^13N-ammonia], in data set [2] (setting [3]), the “k1^Stress” value came to 3.50 ± 0.32 mL/min/g, the “k2^Stress” value is on record as 0.80 ± 0.17, the “k3^Stress” value came to 0.24 ± 0.04 and the “k2^Rest” value is recorded as 0.13 ± 0.04. In data set [2] (setting [3]), the “k3^Rest” value worked out at 0.08 ± 0.07 and the “k4^Rest” value is recorded as 0.47 ± 0.02. In addition, in data set [2] (setting [4]), the “k1^Stress” value amounted to 3.44 ± 0.32 mL/min/g, the “k2^Stress” value stood at 0.79 ± 0.17, the “k3^Stress” value amounted to 0.24 ± 0.04 and the “k2^Rest” value amounted to 0.14 ± 0.04. For the same molecule, in data set [2] (setting [4]), the “k3^Rest” value is listed as 0.11 ± 0.06 and the “k4^Rest” value came to 0.47 ± 0.02. In addition, in data set [2] (setting [5]), the “k1^Stress” value stood at 3.33 ± 0.27 mL/min/g, the “k2^Stress” value is 0.69 ± 0.12, the “k3^Stress” value is given as 0.20 ± 0.03 and the “k2^Rest” value was 0.13 ± 0.04. Also, in data set [2] (setting [5]), the “k3^Rest” value amounted to 0.08 ± 0.07 and the “k4^Rest” value is listed as 0.47 ± 0.02. In addition, in data set [2] (emulated dual-injection data, background subtraction, one typical myocardial region), the “k1^Rest” value is 0.92 ± 0.05 mL/min/g. Also, the “k1^Rest” value in data set [2] (emulated dual-injection data, combined modeling, 20 min, one typical myocardial region) was 0.93 ± 0.05 mL/min/g. In data set [2] (separate single-injection, first 10 min of data, one typical myocardial region (FIG. 5)), the “k1^Rest” value was 0.92 ± 0.05 mL/min/g.

For the origin of these results see patent US7848557B2, “Rapid multi-tracer PET imaging systems and methods” (priority 2007, dated 2010).
